Patent publication USRE50528E1, “Compounds and compositions for modulating EGFR mutant kinase activities” (Yuhan Corporation, priority 2014, dated 2025)

Legend:
EGFR mutant T790M = molecular target: T1, EGFR mutant T790M (Homo sapiens, UniProt P00533, T790M); test: Kinase inhibition assay, EGFR mutant T790M; details: biochemical potency;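 also: truncated human EGFR mutant enzyme preincubated two hours with compound, then ATP plus ULight-PolyGT peptide for one hour, Europium-labeled antibody LANCE detection, IC50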
T1 construct: truncated human JAK3, EGFR mutants such as del E746-A750; purchased Carna Biosciences

[1] = molecular target: T2, EGFR mutant Del19 (E746-A750) (Homo sapiens, UniProt P00533, DEL746-750); test: Kinase inhibition assay, EGFR del E746-A750; type: biochemical; details: read-out: EGFR mutants Del19 (E746-A750);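 also: truncated human EGFR mutant kinase, two-hour preincubation with compound, then one-hour reaction with ATP and ULight-PolyGT peptide, LANCE Europium-antibody phosphorylation readout, IC50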
T2 construct: truncated human JAK3, EGFR mutants such as del E746-A750; purchased Carna Biosciences

EGFR mutant L858R = molecular target: T3, EGFR mutant L858R (Homo sapiens, UniProt P00533, L858R); test: Kinase inhibition assay, EGFR L858R; type: biochemical; details: read-out: EGFR mutants L858R;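 also: truncated human EGFR L858R kinase with compound preincubation, ULight-PolyGT peptide phosphorylation read by Europium-antibody Lance detection, IC50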
T3 construct: truncated human JAK3, EGFR mutants such as del E746-A750; purchased Carna Biosciences

EGFR mutant L858R/T790M = molecular target: T4, EGFR mutant L858R/T790M (Homo sapiens, UniProt P00533, L858R/T790M); test: Kinase inhibition assay, EGFR L858R/T790M; type: biochemical; details: read-out: EGFR mutants L858R/T790M;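 also: truncated human enzyme preincubated two hours with compound, then one hour with one millimolar ATP and ULight-PolyGT peptide, Europium-labeled antibody detection, IC50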
T4 construct: truncated human JAK3, EGFR mutants such as del E746-A750; purchased Carna Biosciences

EGFR mutant Del19/T790M = molecular target: T5, EGFR mutant Del19/T790M (Homo sapiens, UniProt P00533, DEL746-750/T790M); test: Kinase inhibition assay, EGFR del E746-A750/T790M; type: biochemical; details: read-out: EGFR mutants Del19/T790M
T5 construct: truncated human JAK3, EGFR mutants such as del E746-A750; purchased Carna Biosciences

SYK = molecular target: T6, SYK (Homo sapiens, UniProt P43405); test: Kinase inhibition assay, SYK; type: biochemical; details: biochemical potency;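 also: purified full-length human SYK pre-incubated 30 min with compound, then ULight-TK peptide phosphorylation for 1 h, detected with Europium-labeled antibody in Lance buffer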
T6 construct: Purified human, full-length SYK, KDR; purchased Carna Biosciences

H2073 (EGFR wildtype) = test: Cell viability assay, H2073; type: cell-based; details: NCI-H2073; cellular potency; 72-hour incubation; ATPLite;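 also: NSCLC cell line whose survival relies on wildtype EGFR, treated with serially diluted compound, cytotoxic effect judged from remaining cell viability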
[2] = system: PC9 (EGFR del E746-A750 mutant); test: Cell viability assay, PC9; type: cell-based; details: for Selectivity over wildtype, Wildtype vs mutant H2073/PC9 (fold): cellular potency ratio; for IC50: cellular potency, 72-hour incubation, ATPLite, read-out: EGFR Mutants PC9;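 as to all read-outs here: NSCLC PC9 cells, whose viability relies on EGFR del E746-A750, exposed to serially diluted compound for 72 h at 37 °C, ATPLite read-out, IC50, H2073 as EGFR wildtype line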
[3] = system: H1975 (EGFR L858R/T790M mutant); test: Cell viability assay, H1975; type: cell-based; details: for IC50: Homo sapiens, NCI-H1975, cellular potency, 72-hour incubation, ATPLite, read-out: EGFR Mutants H1975; for Selectivity over wildtype, Wildtype vs mutant H2073/H1975 (fold): cellular potency ratio;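 as to all read-outs here: NSCLC cells whose survival relies on EGFR L858R/T790M, exposed 72 h to serially diluted compound, ATP-based viability readout, with the H2073 line (wildtype EGFR dependent) as wildtype comparator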

T1 sequence (P00533 669-1210 T790M limits assumed): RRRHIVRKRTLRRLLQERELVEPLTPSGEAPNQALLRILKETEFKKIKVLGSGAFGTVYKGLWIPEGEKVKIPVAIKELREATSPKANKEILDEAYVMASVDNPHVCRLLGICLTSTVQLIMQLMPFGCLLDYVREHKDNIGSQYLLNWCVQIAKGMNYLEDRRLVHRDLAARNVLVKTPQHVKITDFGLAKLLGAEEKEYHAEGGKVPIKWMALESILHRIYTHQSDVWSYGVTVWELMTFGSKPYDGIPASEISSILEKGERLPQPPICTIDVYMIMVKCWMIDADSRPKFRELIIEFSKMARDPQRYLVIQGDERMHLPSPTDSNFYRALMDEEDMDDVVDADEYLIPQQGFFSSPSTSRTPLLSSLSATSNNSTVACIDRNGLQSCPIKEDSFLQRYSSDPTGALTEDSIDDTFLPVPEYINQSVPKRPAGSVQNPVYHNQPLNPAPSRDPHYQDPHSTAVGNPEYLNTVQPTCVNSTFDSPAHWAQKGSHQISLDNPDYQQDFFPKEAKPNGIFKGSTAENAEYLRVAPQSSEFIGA
T4 sequence (P00533 669-1210 T790M/L858R limits assumed): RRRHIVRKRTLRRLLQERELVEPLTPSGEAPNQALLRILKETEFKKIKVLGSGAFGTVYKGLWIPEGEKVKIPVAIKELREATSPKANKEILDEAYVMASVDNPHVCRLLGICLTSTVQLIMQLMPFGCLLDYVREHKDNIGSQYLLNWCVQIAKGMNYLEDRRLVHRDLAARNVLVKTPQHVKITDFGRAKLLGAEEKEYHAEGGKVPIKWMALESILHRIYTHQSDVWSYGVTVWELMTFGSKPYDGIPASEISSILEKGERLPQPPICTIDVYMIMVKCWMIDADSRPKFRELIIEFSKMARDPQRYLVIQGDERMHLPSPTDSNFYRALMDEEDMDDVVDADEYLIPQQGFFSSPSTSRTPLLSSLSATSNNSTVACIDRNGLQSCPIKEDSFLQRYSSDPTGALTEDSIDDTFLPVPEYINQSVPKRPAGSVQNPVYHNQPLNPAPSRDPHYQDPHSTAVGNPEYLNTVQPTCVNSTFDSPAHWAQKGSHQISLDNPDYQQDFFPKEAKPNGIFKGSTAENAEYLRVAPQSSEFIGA
T3 sequence (P00533 669-1210 L858R limits assumed): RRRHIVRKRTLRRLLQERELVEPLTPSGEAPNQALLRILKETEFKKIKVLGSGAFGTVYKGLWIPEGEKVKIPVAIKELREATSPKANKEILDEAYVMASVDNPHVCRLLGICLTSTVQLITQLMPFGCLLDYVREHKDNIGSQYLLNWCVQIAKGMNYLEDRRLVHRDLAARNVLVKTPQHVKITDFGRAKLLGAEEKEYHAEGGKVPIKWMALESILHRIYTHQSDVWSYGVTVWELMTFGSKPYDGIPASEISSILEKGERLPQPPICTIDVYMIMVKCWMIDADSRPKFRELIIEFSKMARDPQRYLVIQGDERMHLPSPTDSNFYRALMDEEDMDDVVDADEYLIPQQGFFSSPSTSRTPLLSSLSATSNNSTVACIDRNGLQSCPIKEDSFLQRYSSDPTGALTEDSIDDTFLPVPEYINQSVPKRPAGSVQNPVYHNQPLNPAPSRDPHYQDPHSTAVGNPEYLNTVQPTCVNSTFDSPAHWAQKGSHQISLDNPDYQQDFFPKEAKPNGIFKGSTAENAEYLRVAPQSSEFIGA
T2 sequence (P00533 with tags, fused parts or gaps DEL746-750 limits assumed): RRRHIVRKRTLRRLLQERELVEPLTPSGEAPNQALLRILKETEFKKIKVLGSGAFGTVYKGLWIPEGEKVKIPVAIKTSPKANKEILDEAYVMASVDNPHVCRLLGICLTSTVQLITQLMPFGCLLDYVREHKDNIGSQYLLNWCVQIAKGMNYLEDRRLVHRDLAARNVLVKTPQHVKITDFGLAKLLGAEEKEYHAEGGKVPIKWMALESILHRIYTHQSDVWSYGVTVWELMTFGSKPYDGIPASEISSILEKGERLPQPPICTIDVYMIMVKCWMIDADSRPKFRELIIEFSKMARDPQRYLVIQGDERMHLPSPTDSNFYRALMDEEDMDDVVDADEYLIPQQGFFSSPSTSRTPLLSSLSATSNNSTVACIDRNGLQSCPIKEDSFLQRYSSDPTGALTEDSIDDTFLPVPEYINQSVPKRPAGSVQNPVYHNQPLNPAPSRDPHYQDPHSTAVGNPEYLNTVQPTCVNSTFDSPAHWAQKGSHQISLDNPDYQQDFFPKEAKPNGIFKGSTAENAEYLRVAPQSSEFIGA
T5 sequence (P00533 with tags, fused parts or gaps DEL746-750/T790M limits assumed): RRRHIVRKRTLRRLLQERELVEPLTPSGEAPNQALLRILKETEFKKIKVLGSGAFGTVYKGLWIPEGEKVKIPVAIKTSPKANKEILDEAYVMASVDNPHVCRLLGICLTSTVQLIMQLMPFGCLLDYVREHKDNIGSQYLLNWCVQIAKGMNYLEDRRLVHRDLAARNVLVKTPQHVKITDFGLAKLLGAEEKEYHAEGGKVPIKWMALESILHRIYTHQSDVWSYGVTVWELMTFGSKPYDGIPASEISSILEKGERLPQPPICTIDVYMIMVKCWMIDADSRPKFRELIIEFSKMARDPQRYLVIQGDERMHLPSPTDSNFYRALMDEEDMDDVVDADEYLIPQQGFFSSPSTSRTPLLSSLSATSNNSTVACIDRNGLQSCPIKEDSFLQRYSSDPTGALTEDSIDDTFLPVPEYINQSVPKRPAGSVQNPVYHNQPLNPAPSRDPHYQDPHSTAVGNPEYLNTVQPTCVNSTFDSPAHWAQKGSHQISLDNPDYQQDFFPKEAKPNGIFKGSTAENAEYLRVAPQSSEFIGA

Row | SMILES | IC50 (EGFR mutant T790M) | IC50 [1] | IC50 (EGFR mutant L858R) | IC50 (EGFR mutant L858R/T790M) | IC50 (EGFR mutant Del19/T790M) | IC50 (SYK) | IC50 (H2073 (EGFR wildtype)) | Selectivity over wildtype, Wildtype vs mutant H2073/PC9 (fold) [2] | IC50 [2] | IC50 [3] | Selectivity over wildtype, Wildtype vs mutant H2073/H1975 (fold) [3]
1 | C=CC(=O)Nc1cc(Nc2nccc(-n3cc(CN4CCC4)c(C4CC4)n3)n2)c(OC)cc1N1CCC1 [Compound 139, N-(2-(azetidin-1-yl)-5-(4-(4-(azetidin-1-ylmethyl)-3-cyclopropyl-1H-pyrazol-1-yl)pyrimidin-2-ylamino)-4-methoxyphenyl)acrylamide] | < 0.02 µM | < 0.02 µM | < 0.02 µM | < 0.02 µM | < 0.02 µM | > 1 µM | – | – | – | – | –
2 | C=CC(=O)Nc1cc(Nc2nccc(-n3cc(CN(C)CC)c(C4CC4)n3)n2)c(OC)cc1N1CCOCC1 [Compound 140, N-(5-(4-(3-cyclopropyl-4-((ethyl(methyl)amino)methyl)-1H-pyrazol-1-yl)pyrimidin-2-ylamino)-4-methoxy-2-morpholinophenyl)acrylamide] | < 0.02 µM | < 0.02 µM | < 0.02 µM | < 0.02 µM | < 0.02 µM | > 1 µM | – | – | – | – | –
3 | C=CC(=O)Nc1cc(Nc2ncc(F)c(-n3cc(C)c(CN4CCC4)c3)n2)c(OC)cc1N1CCC1 [Compound 141, N-(2-(azetidin-1-yl)-5-(4-(3-(azetidin-1-ylmethyl)-4-methyl-1H-pyrrol-1-yl)-5-fluoropyrimidin-2-ylamino)-4-methoxyphenyl)acrylamide] | < 0.02 µM | < 0.02 µM | < 0.02 µM | < 0.02 µM | < 0.02 µM | 0.201 to 1 µM | – | – | – | – | –
4 | Cc1cn(-c2ccnc(Nc3ccc(-c4ccccc4)c(C)c3)n2)cc1CN1CC(O)C1 [Compound 150, 1-((4-methyl-1-(2-(2-methylbiphenyl-4-ylamino)pyrimidin-4-yl)-1H-pyrrol-3-yl)methyl)azetidin-3-ol, reference compound] | > 1 µM | > 1 µM | > 1 µM | 0.201 to 1 µM | > 1 µM | > 1 µM | – | – | – | – | –
5 | COc1cc(N2CCOCC2)c([N+](=O)[O-])cc1Nc1nccc(-n2cc(CN(C)C)c(-c3ccccc3)n2)n1 [Compound 152, 4-(4-((dimethylamino)methyl)-3-phenyl-1H-pyrazol-1-yl)-N-(2-methoxy-4-morpholino-5-nitrophenyl)pyrimidin-2-amine, reference compound] | > 1 µM | > 1 µM | > 1 µM | > 1 µM | > 1 µM | > 1 µM | – | – | – | – | –
6 | COc1cc(N2CCOCC2)c(N)cc1Nc1nccc(-n2cc(CN(C)C)c(-c3ccccc3)n2)n1 [Compound 153, N1-(4-(4-((dimethylamino)methyl)-3-phenyl-1H-pyrazol-1-yl)pyrimidin-2-yl)-6-methoxy-4-morpholinobenzene-1,3-diamine, reference compound] | > 1 µM | > 1 µM | > 1 µM | > 1 µM | > 1 µM | > 1 µM | – | – | – | – | –
7 | C=CCC(=O)Nc1cc(Nc2nccc(-n3cc(CN(C)C)c(-c4ccccc4)n3)n2)c(OC)cc1N1CCOCC1 [Compound 154, N-(5-(4-(4-((dimethylamino)methyl)-3-phenyl-1H-pyrazol-1-yl)pyrimidin-2-ylamino)-4-methoxy-2-morpholinophenyl)but-3-enamide, reference compound] | – | – | – | – | – | – | > 1 µM | <20 fold | 0.02 to 0.2 µM | 0.201 to 1 µM | <20 fold
8 | CC/C=C/C(=O)Nc1cc(Nc2nccc(-n3cc(CN(C)C)c(-c4ccccc4)n3)n2)c(OC)cc1N1CCOCC1 [Compound 155, (E)-N-(5-(4-(4-((dimethylamino)methyl)-3-phenyl-1H-pyrazol-1-yl)pyrimidin-2-ylamino)-4-methoxy-2-morpholinophenyl)pent-2-enamide, reference compound] | – | – | – | – | – | – | > 1 µM | <20 fold | 0.201 to 1 µM | 0.201 to 1 µM | <20 fold
